Data on two compounds can be found in paper PMC6269967, “Evaluation of the Interaction between Long Telomeric DNA and Macrocyclic Hexaoxazole (6OTD) Dimer of a G-quadruplex Ligand” (Molecules, 2013).

Read-outs that look alike come from different tables or passages of the source.

Usually IC50 stands for the concentration that gives 50% inhibition.

For test [1], the target named is telomerase. Particulars: TRAP assay; ref [17],[18],[19],[20],[21],[22]; read-out: telomerase inhibitory activity, IC50; cited from earlier work. The text has this: At the end of chromosomes, there exists a characteristic region called the telomere. The telomere is composed of double-stranded tandem repeats of (TTAGGG/AATCCC)n sequence amounting to 2–30 kb, to which telomere binding proteins are bound. These sequences are shortened at each cell division, ultimately inducing cell senescence. At the extreme end of these duplex repeats there is a single-stranded 3' overhang, termed the 3' G-tail, consisting of ca. 50−250 nucleotides in total. The G-tail sequence is considered to form G-quadruplexes (G4s), one of the higher-order structures ...

Test [2] relates to telo24. Particulars: earlier work of the authors, reference not given; cited from earlier work. The text has this:
(§1) For evaluations of interaction and stabilization of telomeric DNA with G4 ligands, telo24 DNA, i.e., four sets of (TTAGGG) repeats consisting of 24 bases in total, has been usually used as a telomeric DNA model, because it is a minimum length able to form one unit of G4 structure.

The test system of test [3] is long telomeric DNAs telo48, 72, and 96. Particulars: ref [53]; cited from earlier work.
From the text: as §1

Test [4] concerns telomerase. Kind of test: Telomerase repeat amplification protocol (TRAP) assay, cell-free, PC3 cell lysate. Format: biochemical. Particulars: telomerase reaction 30 min, 20 °C, average of two independent experiments, read-out: telomerase inhibitory activity, IC50. Here is the method: Finally, we examined the telomerase inhibitory activities of the L2H2-6OTD monomer (2) and its dimer 3 in a cell-free system by telomerase repeat amplification protocol (TRAP) assay using PC3 cell lysate. Telomerase is known to elongate various lengths of telomere sequences, and the stabilization ability of each ligand can be evaluated with TRAP assay.
Telomerase repeat amplification protocol (TRAP) assays were conducted as follows; 1 × 10^5 of PC3 cells were lysed with 200 μL of TRAP lysis buffer, placed on ice for 30 min, and centrifuged for 20 min (15,000 rpm, 4 °C). This TRAP lysate (2.0 μL) was mixed with 10×T-PCR buffer (5.0 μL), 2.5 mM dNTPs (1.0 μL), 50 ng/μL TS primer (5'-d[AATCCGTCGAGCAGAGTT]-3', 2.0 μL), 0.2 pM TSNT (5'-d[[…]]-3', 0.5 μL), DEPC (Diethylpyro carbonate) solution in MilliQ water (30 μL), compounds (DMSO solution, 5.0 μL), and placed on ice for 30 min. After the telomerase reactions (30 min, 20 °C), the reacting solution was placed on ice, 2.0 μL of 10 μM NT primer (5'-d[ATCGCTTCTCGGCCTTTT]-3’), 2.0 μL of […] (5'-d[GCGCGG (CTTACC)3CTAACC]-3') and 0.5 μL of Gene Taq (Nippon Gene, Tokyo, Japan) were added. The three-step PCR was performed: 27 cycles of 94 °C for 25 s, 50 °C for 25 s, and 72 °C for 45 s. […] IC50 value was calculated from average of two independent experiments.

The test system of test [5] is telo24. To be noted: telo24 (10 μM), ligand 4 eq.; CD at 295 nm, 50 mM Tris–HCl pH 7.5, 100 mM KCl; 1.0 °C/min; ligand-free Tm 59; ref [53]; cited from earlier work. The text has this:
(§2) Table 1 Tm values (°C) of telomeric DNAs in the absence or presence of G4 ligands 2 and 3 ^a,b,c. | column: Tm

A further test deals with telo48. To be noted: CD at 295 nm, 50 mM Tris–HCl pH 7.5, 100 mM KCl, ref [53], cited from earlier work.
From the text: as §2

As to `Cc1oc2nc1-c1nc(co1)-c1nc(co1)-c1nc(co1)-c1nc(co1)-c1nc(co1)C1=NC(CS1)c1nc-2c(C)o1` (centres unmarked) [telomestatin], on telomerase [1], the IC50 is 5 nM.

On to `NCCCC[C@@H]1NC(=O)c2coc(n2)-c2coc(n2)-c2coc(n2)[C@H](CCCCN)NC(=O)c2coc(n2)-c2coc(n2)-c2coc1n2` [compound 2], for which the interaction mode entry in the test on telo24 [2] was “strongly interacts with telo24 to form anti-parallel-type G4 structure in an end-stacking mode with two molecules of 2”; in test [3] it was “each telo24 unit in the long telomeric DNAs interacted with two molecules of L2H2-6OTD (2) in an end-stacking mode, and were induced to take anti-parallel-type topology”. Also, the concentration for half-maximal inhibition (IC50) in the test with telomerase [4] stood at 15 nM. For the same compound, the Tm with telo24 [5] was 75 °C; in the test on telo48 (DNA printed telo48 (fourth group), ligand 16 eq., ligand-free Tm 55), 70 °C; with telo48 (DNA printed telo48 (third group), ligand 12 eq., ligand-free Tm 55), 73 °C; with telo48 (telo48, ligand 8 eq., 1.0 °C/min, ligand-free Tm 57), 76 °C.
